Results on six compounds are retold here after patent US7414049B2, “4-oxo-2,3,4,5-tetrahydro-benzo[b][1,4]diazepine derivatives” (Hoffmann-La Roche Inc., priority 2006, dated 2008).

Molecules are shown by their SMILES. Converted amounts (≈) assume the structure as drawn.

Data set [1] can be described thus: THESA assay, thermodynamic solubility. Type of data set: physicochemical. Conditions: 22.5 °C, aqueous buffer, thermodynamic from solid, 50 mM phosphate buffer. The protocol: In addition, the compounds of the present invention have been tested in a THESA assay for determination of the thermodynamic solubility.
Approximately 2 mg of each compound was added in excess to a 50 mM phosphate buffer, at room temperature (22.5±1° C.). Each sample was placed in a microanalysis tube, which was sonicated for 1 h and agitated for 2 h. All suspensions were left overnight. At the next day all pHs were measured with a pH-meter and the samples filtered with a micronic filterplate (MSGVN2250) to separate the solid material from the solution. Then, all solutions were analyzed by HPLC. The calibration line was established by different concentrations of the compound in DMSO. From this regression equation the solubility of the compound was determined.

Data set [2] can be described thus: Microsome incubation, metabolic stability (human). Type of data set: in vitro ADME. Particulars: for microsomal CLint at 10 μM: pH 7.4, human liver microsomes 2.0 mg prot/mL, test compound 10 μM, 37° C., read-out: Intrinsic clearance (human). As for the experimental part: The compounds of formula I of the present invention are further characterized by high metabolic stability. This parameter is a prerequisite for good bioavailability, which is necessary to obtain medicaments with acceptable in-vivo activity. The metabolic stability has been tested by the following method:
Incubation mixtures consisted of liver microsomes (rat 1.0 mg prot/mL or human 2.0 mg prot/mL), test compound 10 μM, MgCl2 (3.3 mM), and an NADPH regenerating system consisting of glucose-6-phosphate dehydrogenase, NADPH and glucose-6-phosphate (equivalent to 1 mM NADPH) in a total volume of 1.0 mL of potassium phosphate buffer 100 mM pH 7.4. Reactions were initiated by addition of the NADPH regenerating system at 37° C. At the time of 1, 5, 9, 13, 17, 21, 25, and 29 min a 5 μL aliquot was directly analysed on a HPLC-MS/MS system consisting of a HP 1100 quaternary pump with degasser and a PE-Sciex API-2000 MS/MS spectrometer. The analytical column was a Waters Symmetry Shield RP8 (2.1*50 mm with a […] particle size). A polarity non linear gradient from phase A (MeOH/Ac. Form. 1% 20/80) to phase B (MeOH) was applied for a total run time of 2 minutes at a flow rate of 0.25 mL/min. The PE-Sciex API-2000 MS/MS spectrometer was used for detection of the parent compound. In vivo metabolic clearance was predicted according to published procedures [Houston, Biochem. Pharmacol. 47:1469-1479 (1994)]. In brief, the intrinsic clearance (Clearance, see table below) is calculated from the measured in vitro half-life taking into account incubation volume and microsomal protein used for the in vitro incubation. The intrinsic clearance is expressed in terms of μl/min/mg microsomal protein. For in vivo extrapolations, the hepatic extraction ratio (E) was calculated. Here it is reported the % MAB value which is equal to 1-E. The MAB (maximal achievable bioavailability) values express the maximal bioavailability that one can achieve with the given clearance values.

Data set [3] is described as follows: Microsome incubation, metabolic stability (mouse). Type of data set: in vitro ADME. Conditions: for microsomal CLint at 10 μM: pH 7.4, liver microsomes, test compound 10 μM, 37° C., read-out: Intrinsic clearance (mouse).
Where [4] appears, read: maximal achievable bioavailability = 1-E, extrapolated from intrinsic clearance.
Setting [5] is: comparison table, room temperature.

In data set [1] (room temperature (22.5±1° C.)), `CC(O)(C(=O)NCC(F)(F)C(F)(F)F)C(=O)N[C@H]1CN(C(=O)OCC(F)(F)F)c2ccccc2NC1=O` (single isomer, unassigned) [Example 10, (S)-3-[(R or S)-2-Hydroxy-2-(2,2,3,3,3-pentafluoro-propylcarbamoyl)-propionylamino]-4-oxo-2,3,4,5-tetrahydro-benzo[b][1,4]diazepine-1-carboxylic acid 2,2,2-trifluoro-ethyl ester and (S)-3-[(S or R)-2-Hydroxy-2-(2,2,3,3,3-pentafluoro-propylcarbamoyl)-propionylamino]-4-oxo-2,3,4,5-tetrahydro-benzo[b][1,4]diazepine-1-carboxylic acid 2,2,2-trifluoro-ethyl ester] gave a thermodynamic solubility of 74 µg/mL (≈ 134 µM). Moreover, the “MAB (human)” value in data set [2] (setting [4]) is 100.0%. Further, the “MAB (mouse)” value in data set [3] (setting [4]) is recorded as 85.5%. Moreover, in data set [3], the microsomal CLint at 10 μM was determined as 5.4 µL/min/mg.

`CC(O)(C(=O)NCC(F)(F)C(F)(F)F)C(=O)N[C@H]1CN(C(=O)OCC(F)(F)F)c2ccccc2N(CC(F)(F)F)C1=O` (single isomer, unassigned) [Example 11] gave a thermodynamic solubility in data set [1] (setting [5]) of 37 µg/mL (≈ 58.5 µM). Besides, the “MAB (human)” value in data set [2] (comparison table) and in data set [2] (setting [4]) was 100.0% in each case. The “MAB (mouse)” value in data set [3] (comparison table) and in data set [3] (setting [4]) was 74.9% throughout. For the same compound, the microsomal CLint at 10 μM in data set [3] was found to be 10.6 µL/min/mg.

In data set [1] (room temperature (22.5±1° C.)), `CC(O)(C(=O)NCC(F)(F)C(F)(F)F)C(=O)N[C@H]1CN(C(=O)OCC(F)(F)F)c2ccccc2N(CCO)C1=O` (single isomer, unassigned) [Example 12, (S)-5-(2-Hydroxy-ethyl)-3-[(S or R)-2-hydroxy-2-(2,2,3,3,3-pentafluoro-propylcarbamoyl) -propionylamino]-4-oxo-2,3,4,5-tetrahydro-benzo[b][1,4]diazepine-1-carboxylic acid 2,2,2-trifluoro-ethyl ester] returned a solubility (thermodynamic) of 3230 µg/mL (≈ 5430 µM). Besides, the “MAB (human)” value in data set [2] (setting [4]) was 84.3%. For the same compound, the microsomal CLint at 10 μM is 2.9 µL/min/mg in data set [2] and 0.9 µL/min/mg in data set [3]. In data set [3] (setting [4]), the “MAB (mouse)” value is reported as 97.2%.

On to `CC(O)(C(=O)NCC(F)(F)C(F)(F)F)C(=O)N[C@H]1CN(C(=O)OCCO)c2ccccc2N(CCO)C1=O` (single isomer, unassigned) [Example 14, (S)-5-(2-Hydroxy-ethyl)-3-[(S or R)-2-hydroxy-2-(2,2,3,3,3-pentafluoro-propylcarbamoyl)-propionylamino]-4-oxo-2,3,4,5-tetrahydro-benzo[b][1,4]diazepine-1-carboxylic acid 2-hydroxy-ethyl ester], for which the solubility (thermodynamic) in data set [1] (room temperature (22.5±1° C.)) is 5180 µg/mL (≈ 9320 µM). Further, the “MAB (human)” value in data set [2] (setting [4]) is 53.3%. The microsomal CLint at 10 μM in data set [2] came to 13.6 µL/min/mg; in data set [3] it was 12.3 µL/min/mg. The “MAB (mouse)” value in data set [3] (setting [4]) is reported as 72.1%.

As to `CC(C)(C(=O)NCC(F)(F)C(F)(F)F)C(=O)N[C@H]1CN(C(=O)OCC(F)(F)F)c2ccccc2N(CC(F)(F)F)C1=O` [reference compound], in data set [1] (setting [5]), the solubility (thermodynamic) is 16 µg/mL (≈ 25.4 µM). In data set [2] (comparison table), the “MAB (human)” value was 19.6%. Besides, the “MAB (mouse)” value in data set [3] (comparison table) is recorded as 28.4%.

In turn, `CC(C)(C(=O)NCC(F)(F)C(F)(F)F)C(=O)N[C@H]1CN(CC(F)(F)F)c2ccccc2NC1=O` [reference compound] returned a thermodynamic solubility in data set [1] (setting [5]) of less than 1 µg/mL. The “MAB (human)” value in data set [2] (comparison table) amounted to 43.1%. The “MAB (mouse)” value in data set [3] (comparison table) was determined as 21.8%.
